Experimental findings from article PMC7773212, “Dissecting the Mechanism of (R)-3-Hydroxybutyrate Dehydrogenase by Kinetic Isotope Effects, Protein Crystallography, and Computational Chemistry” (ACS Catalysis, 2020) are described below.

Assay [1] has as its target (R)-3-hydroxybutyrate dehydrogenase from Acinetobacter baumannii (Acinetobacter baumannii). The assay can be described thus: crystal structure; ternary complexes with NAD+ and acetoacetate or 3-oxovalerate; tetramers formed with crystallographic symmetry; crystals grown at room temperature.
Assay [2] has the same target. The assay can be described thus: SEC; analytical gel filtration, Superdex 200 10/300 GL, room temperature, samples loaded at 1 mg/mL, 20 mM HEPES pH 8.0, MW standards. For orientation: In gel filtration, larger molecules generally elute earlier.
In assay [3] the target is T1, AbHBDH (Acinetobacter baumannii, UniProt A0A1E3M3N6).
T1 construct: gene AUO97_16470; homotetramer; landmarks: Gln95, Ser143, Asn145, Gly149, Phe150, Gly152, Lys153, Tyr156, Val189, Gln197
T1 sequence (A0A1E3M3N6 1-261): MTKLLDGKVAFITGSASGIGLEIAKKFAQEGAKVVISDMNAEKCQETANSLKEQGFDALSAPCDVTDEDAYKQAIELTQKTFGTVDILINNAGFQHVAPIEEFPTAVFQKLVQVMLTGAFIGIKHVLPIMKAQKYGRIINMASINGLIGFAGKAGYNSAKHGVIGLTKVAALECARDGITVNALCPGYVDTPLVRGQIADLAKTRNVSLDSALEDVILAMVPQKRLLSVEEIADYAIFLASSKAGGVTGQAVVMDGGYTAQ
The assay can be described thus: X-ray crystal structure, […] Å. It is filed as binding.

In assay [4] the target is T2, PaHBDH (Psychrobacter arcticus, UniProt Q4FRT2).
T2 construct: gene Psyc_1428; homotetramer; landmarks: Gln99, Ser148, His150, Lys158, Tyr161, Val194, Gln202
T2 sequence (Q4FRT2 entry or part of it): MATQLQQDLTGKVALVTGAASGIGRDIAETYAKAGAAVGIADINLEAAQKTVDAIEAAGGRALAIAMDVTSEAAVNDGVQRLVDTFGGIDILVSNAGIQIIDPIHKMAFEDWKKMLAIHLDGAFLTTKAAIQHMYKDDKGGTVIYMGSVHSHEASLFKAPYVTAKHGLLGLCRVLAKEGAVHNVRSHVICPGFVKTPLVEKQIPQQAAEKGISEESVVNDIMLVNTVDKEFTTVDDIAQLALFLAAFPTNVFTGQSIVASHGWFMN
The assay can be described thus: X-ray crystal structure, […] Å. The class given is binding. The following applies: ternary dead-end complex with NAD+.

Assay [5] has as its target T1, AbHBDH. The assay can be described thus: isothermal titration calorimetry. The class given is binding. The following applies: 100 mM HEPES, pH 7.0, 25 °C; single-site model.
For assay [6], the target named is T2, PaHBDH. The assay can be described thus: NADH fluorescence titration with enzyme. The class given is binding. The following applies: 100 mM HEPES, pH 7.0, 25 °C; 3 μM NADH.
The target of assay [7] is T2, PaHBDH. The assay can be described thus: X-ray crystal structure, […] Å. It is filed as binding.
Assay [8] concerns the target (R)-3-hydroxybutyrate dehydrogenase from Psychrobacter arcticus (Psychrobacter arcticus). The assay is described as follows: crystal structure; ternary complexes with NAD+ and acetoacetate or 3-oxovalerate; tetramers formed with crystallographic symmetry; crystals grown at room temperature.
For assay [9] the target is unchanged. The assay is described as follows: SEC; analytical gel filtration, Superdex 200 10/300 GL, room temperature, samples loaded at 1 mg/mL, 20 mM HEPES pH 8.0, MW standards.
[10] abbreviates: ternary dead-end complex with NAD+.
Where [11] appears, read: ternary dead-end complex with acetoacetate (also with 3-oxovalerate).

With “(R)-3-hydroxybutyrate dehydrogenase from Acinetobacter baumannii (enzyme)”, the stoichiometry N in assay [1] and in [2] was 4 each time.
Take `CCC(=O)CC(=O)O` [3-oxovalerate]: the “X-ray crystal structure, 1.9 Å” value at AbHBDH [3] (setting [10]) was “Fobs – Fcalc maps show clear density for NAD^+ and either acetoacetate or 3-oxovalerate”. For the same compound, the “X-ray crystal structure, 1.84 Å” value on PaHBDH [4] is “Fobs – Fcalc maps show clear density for NAD^+ and either acetoacetate or 3-oxovalerate”.
`NC(=O)C1=CN([C@@H]2O[C@H](COP(=O)(O)OP(=O)(O)OC[C@H]3O[C@@H](n4cnc5c(N)ncnc54)[C@H](O)[C@@H]3O)[C@@H](O)[C@H]2O)C=CC1` [NADH]: the Kd (usually the free concentration of one partner at which half of the binding sites on the other are occupied at equilibrium, for simple one-to-one binding) was 14 ± 8 µM on AbHBDH [5] and 7 ± 2 µM on PaHBDH [6].
`NC(=O)c1ccc[n+]([C@@H]2O[C@H](COP(=O)(O)OP(=O)(O)OC[C@H]3O[C@@H](n4cnc5c(N)ncnc54)[C@H](O)[C@@H]3O)[C@@H](O)[C@H]2O)c1` [NAD^+]: at AbHBDH [3] (setting [11]), the “X-ray crystal structure, 1.9 Å” value is “crystal structures of the ternary complexes PaHBDH:NAD^+:AcAc, AbHBDH:NAD^+:AcAc”. For the same compound, the “X-ray crystal structure, 1.3 Å” value at PaHBDH [7] (setting [11]) was “crystal structures of the ternary complexes PaHBDH:NAD^+:AcAc, AbHBDH:NAD^+:AcAc”.
For the compound `CC(=O)CC(=O)O` [acetoacetate], the “X-ray crystal structure, 1.9 Å” value on AbHBDH [3] (setting [10]) was “crystal structures of the ternary complexes PaHBDH:NAD^+:AcAc, AbHBDH:NAD^+:AcAc”. Besides, the “X-ray crystal structure, 1.3 Å” value on PaHBDH [7] (ternary dead-end complex with NAD+, two conformations of acetoacetate) was “crystal structures of the ternary complexes PaHBDH:NAD^+:AcAc, AbHBDH:NAD^+:AcAc”.
For the compound “(R)-3-hydroxybutyrate dehydrogenase from Psychrobacter arcticus (enzyme)”, the stoichiometry N in [8] and in assay [9] was 4 in each case.
